In patent publication US9464078B2, “Monohydrate of azaadamantane derivatives” (AbbVie Inc., priority 2010, dated 2016):
Counter-ions that a name gives are not always drawn. Like-named read-outs stand apart in the source and are kept apart here. Each block holds one compound with its values, some of them ahead of it.

How the values were obtained:
Format in all cases: physicochemical
solubility in water = assay: solubility in water
[1] = hygroscopicity by dynamic moisture sorption balance
Protocol: Dynamic moisture sorption balance (DMSB) was used to evaluate the hygroscopicity of the crystalline monohydrate compound. The hygroscopicity was evaluated using a dynamic moisture sorption balance (IGAsorp, Hiden Isochema) equipped with a data analyzer. The balance was calibrated using standardized weights of 20, 50, and 100 mg. The RH probe was calibrated using standardized salt solutions of lithium chloride, potassium carbonate, and sodium chloride. During the experiment, the flow rate of nitrogen gas at different relative humidity was 250 mL/min. For anhydrous materials, the sample was first dried with dry nitrogen at 50° C. for two hours. The temperature was then set to 25° C. and the relative humidity was changed from 0% to 90% and back to 0% at 10% intervals. For hydrated samples the temperature was set to 25° C. and the relative humidity was changed at 10% intervals from 30% to 90%, back to 10%, and then to 90%. For each step described herein, a one hour equilibration time period was used.

[2] = critical water activity for hydrate formation (PXRD of solids from methanol/water suspensions); settings: ambient temperature
Source text: The critical water activity of the monohydrate salt can be determined by mixing different ratios of organic solvents and water. The analysis of the water activity for these solvent mixtures are temperature dependent. Determination of the critical water activity typically comprises the following steps: (1) preparation of solvent mixtures with a range of water activities; (2) saturation of the organic solvent/water mixtures with the monohydrate salt; (3) the optional filtration of the saturated solution; (4) addition of a 1:1 solid mixture (e.g., 25 mg/phase) of the anhydrous and hydrated phases to the saturated organic solvent/water mixtures; (5) equilibration at the temperature of interest (3-5 days); and (6) analysis of the residual solids by the appropriate technique, as understood by one skilled in the art (e.g., PXRD) to determine the identity of the stable phases.
The inventors determined the critical water activity for (4s)-4-(5-phenyl-1,3,4-thiadiazol-2-yloxy)-1-azatricyclo[3.3.1.1^3,7]decane dihydrogen citrate monohydrate at ambient temperature. Specifically, the inventors developed suspensions of the crystalline product in mixtures of methanol and water, with water activities of 0.20, 0.15, 0.10, and 0.05, performing powder X-ray diffraction patterns for each suspension, respectively. […]

solubility (solubility in water): 28 mg/mL
hygroscopicity (in words) [1]: non-hygroscopicity
SMILES: c1ccc(-c2nnc(O[C@@H]3C4CC5C[C@H]3C[N@](C5)C4)s2)cc1 [dihydrogen citrate anhydrate, (4s)-4-(5-phenyl-1,3,4-thiadiazol-2-yloxy)-1-azatricyclo[3.3.1.1^3,7]decane dihydrogen citrate]

water activity of solvent at which the salt exists as the anhydrate [2]: ≤ 0.10
water activity of solvent at which the salt exists as the monohydrate [2]: ≥ 0.15
SMILES: c1ccc(-c2nnc(O[C@@H]3C4CC5C[C@H]3C[N@](C5)C4)s2)cc1 [(4s)-4-(5-phenyl-1,3,4-thiadiazol-2-yloxy)-1-azatricyclo[3.3.1.1^3,7]decane dihydrogen citrate]

hygroscopicity (in words) ([1]; citrate monohydrate): non-hygroscopic
hygroscopicity (in words) ([1]; listed as crystalline monohydrate of (4s)-4-(5-phenyl-1,3,4-thiadiazol-2-yloxy)-1-azatricy, citrate monohydrate): non-hygroscopic
weight change by dynamic moisture sorption ([1]; relative humidities from 0% to 90%, listed as crystalline monohydrate of (4s)-4-(5-phenyl-1,3,4-thiadiazol-2-yloxy)-1-azatricy, citrate monohydrate): < 0.2%
SMILES: c1ccc(-c2nnc(O[C@@H]3C4CC5C[C@H]3C[N@](C5)C4)s2)cc1 [dihydrogen citrate monohydrate, (4s)-4-(5-phenyl-1,3,4-thiadiazol-2-yloxy)-1-azatricyclo[3.3.1.1^3,7]decane dihydrogen citrate monohydrate]
